Measurements from PMC9688475, “Identification and Analysis of Small Molecule Inhibitors of CRISPR-Cas9 in Human Cells” (Cells, 2022).
Values joined by “and” are separate entries in the source; they are usually repeats but may differ in a detail not shown here. Equal values may be shown once.

Columns and labels:
[1] = target: T1, SpCas9–gRNA complex (Streptococcus pyogenes serotype M1, UniProt Q99ZW2); experiment: Microscale thermophoresis (MST), SpCas9-gRNA RNP; type: binding; details: SpCas9-EGFP/gRNA RNP (1:1) 200 nM, 25 °C
T1 construct: His6 (N); TEV site (N); made in house; host or cells: E. coli BL21 Star (DE3)
T1 sequence (Q99ZW2 whole entry, one chain of several): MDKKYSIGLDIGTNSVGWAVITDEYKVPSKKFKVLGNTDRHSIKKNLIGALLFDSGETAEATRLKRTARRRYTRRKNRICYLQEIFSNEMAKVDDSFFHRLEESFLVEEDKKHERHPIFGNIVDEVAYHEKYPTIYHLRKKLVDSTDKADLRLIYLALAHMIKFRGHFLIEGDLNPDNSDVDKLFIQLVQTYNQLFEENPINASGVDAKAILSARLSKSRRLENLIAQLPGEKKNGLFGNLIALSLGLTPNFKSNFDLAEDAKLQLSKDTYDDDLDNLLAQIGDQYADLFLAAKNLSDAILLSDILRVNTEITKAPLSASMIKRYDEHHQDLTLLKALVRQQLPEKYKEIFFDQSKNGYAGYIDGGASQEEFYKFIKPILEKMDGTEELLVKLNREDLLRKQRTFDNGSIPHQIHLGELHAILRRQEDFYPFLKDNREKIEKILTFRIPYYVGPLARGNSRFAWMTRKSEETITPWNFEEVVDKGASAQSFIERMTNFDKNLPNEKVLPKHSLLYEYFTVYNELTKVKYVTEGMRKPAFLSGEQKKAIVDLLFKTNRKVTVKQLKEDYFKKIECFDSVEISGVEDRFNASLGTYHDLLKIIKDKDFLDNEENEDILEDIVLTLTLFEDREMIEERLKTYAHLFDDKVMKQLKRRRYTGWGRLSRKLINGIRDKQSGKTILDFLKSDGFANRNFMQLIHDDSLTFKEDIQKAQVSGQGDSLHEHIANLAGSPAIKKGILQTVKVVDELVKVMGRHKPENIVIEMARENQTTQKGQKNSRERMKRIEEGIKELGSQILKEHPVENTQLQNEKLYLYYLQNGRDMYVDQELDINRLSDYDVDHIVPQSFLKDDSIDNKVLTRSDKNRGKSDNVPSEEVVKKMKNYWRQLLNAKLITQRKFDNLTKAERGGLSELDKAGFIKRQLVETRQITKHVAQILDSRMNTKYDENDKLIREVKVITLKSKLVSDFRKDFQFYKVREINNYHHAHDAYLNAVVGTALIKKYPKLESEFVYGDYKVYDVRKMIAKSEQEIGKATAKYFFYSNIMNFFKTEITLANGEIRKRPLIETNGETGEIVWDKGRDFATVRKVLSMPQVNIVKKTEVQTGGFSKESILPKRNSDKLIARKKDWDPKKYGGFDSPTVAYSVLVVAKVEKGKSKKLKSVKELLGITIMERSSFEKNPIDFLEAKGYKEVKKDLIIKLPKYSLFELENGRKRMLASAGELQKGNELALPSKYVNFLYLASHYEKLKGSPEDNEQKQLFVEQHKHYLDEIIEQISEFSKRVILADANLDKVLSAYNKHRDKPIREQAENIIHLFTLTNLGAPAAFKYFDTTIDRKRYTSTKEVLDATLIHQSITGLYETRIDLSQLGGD
Method: (§1) The MST method was carried out similar to the previous report. The binding ability of the compounds to SpCas9 in different states was tested by Monolith NT.115 (NanoTemper Technologies, Munich, Germany). The SpCas9-EGFP fusion protein or the SpCas9-EGFP/gRNA RNP complex (protein: gRNA = 1:1) was diluted with a binding buffer (50 mM Tris-HCl, pH 7.4, 150 mM NaCl, 0.05% Tween-20, and 10 mM MgCl2) to make a final concentration of 200 nM. The protein diluent was mixed with the compound diluent in equal volume. The mixture was kept at room temperature for 10 min. Then the sample was loaded into the NanoTemper standard capillaries. All experiments were carried out at 25 °C, 80% MST power, and 50% LED power. The data were analyzed with the NanoTemper MO affinity analysis software (NanoTemper Technologies, Munich, Germany). The raw data were then exported and plotted with Origin 2020b (OriginLab, Northampton, MA, USA).

[2] = test system: dSpCas9–gRNA complex; experiment: Competitive fluorescence polarization assay, dSpCas9-gRNA; type: binding, Streptococcus pyogenes; details: FITC-DNA 25 nM, compounds 50 μM, PAM-DNA 1.25 μM
[3] = target: T2, SpCas9 (Streptococcus pyogenes serotype M1, UniProt Q99ZW2); experiment: Microscale thermophoresis (MST), SpCas9; type: binding; design: His6 (N); TEV site (N); made in house; host or cells: E. coli BL21 Star (DE3); details: SpCas9–EGFP fusion protein 200 nM, 25 °C
T2 sequence (Q99ZW2 whole entry, the tested form may be a part): as the sequence (Q99ZW2 whole entry, one chain of several) above
Method: as §1

[4] = test system: Flag-tagged SpCas9 protein expression; details: western blot, GAPDH loading control, concentrations tested
Method: The reporter 293T cells were seeded into 96-well plates at a density of 10,000 cells per well and cultured overnight before the addition of DMSO alone or various compounds (in DMSO solution) at appropriate concentrations (0.125–100 μM) with or without 2 μg/mL doxycycline for an additional 72 h of incubation. The cells were then harvested for analysis with the CytoFLEX flow cytometer (Beckman Coulter, Brea, CA, USA) or analyzed by western blot with antibodies as indicated. […] The inhibiting efficiency in reporter 293T cells was calculated using the following equation: E’ = (P2 − P1)/(P0 − P1) × 100%, where E’ is the inhibiting efficiency in reporter 293T cells, and P0, P1, and P2 are the GFP positive cell ratio of the uninduced group, Dox and DMSO treated control group, and Dox and compound treated group, respectively.

[5] = test system: FITC-DNA; details: compared with DMSO, no SpCas9
Method: The fluorescence polarization experiment was as previously reported [33]. […] The DNA was labeled at the 3′ end with fluorescein isothiocyanate (FITC). The other one is complementary to the first 58 bases of the previous oligonucleotide. These two oligonucleotides were annealed to generate the target DNA substrate labeled with fluorescent molecules (FITC-DNA). Unlabeled DNA (PAM-DNA) was considered competitive positive controls. Experiments were performed on black 384-well plates (Corning, New York, NY, USA). 50 nM SpCas9-gRNA (1:1) and different concentrations of the compound were added to the reaction buffer (50 mM Tris-HCl, pH 8.0, 0.1 M NaCl, 10 mM MgCl2, and 1 mM DTT). PAM-DNA (1250 nM) was used as a positive control. The mixture was then incubated at room temperature for 30 min, and FITC-DNA was added to the final concentration of 25 nM in each well. Fluorescence polarization signals were measured using a multilabel reader (Victor X5, PerkinElmer, Waltham, MA, USA) within 10 min. These values were plotted using GraphPad Prism 6.0 software (San Diego, CA, USA).

[6] = target: T2, SpCas9; experiment: Inhibition of SpCas9 nuclease activity in EGFP/iCas9/gRNA-EGFP reporter 293T cells (flow cytometry); type: cell-based; design: expressed in transfected cells; host or cells: H2AX-EGFP HEK293T cells, lentiviral transduction, doxycycline-induced
Excerpt: The H2AX-EGFP 293T cell line was first generated using the previously reported MMEJ-mediated CRIS-PITCh system. Briefly, we cloned two gRNAs (Supplementary Table S3) that respectively target H2AX gene and the PITCh vector into the px330 plasmid (Addgene, #42230). The PITCh vector contains a pair of 20-bp homologous sequences targeting the upstream and downstream regions of the H2AX gRNA cleavage site, and the SFB-EGFP expression cassette. The three plasmids were co-transfected into 293T cells at an equimolar ratio. GFP-positive cells were sorted by FACS and individually expanded to isolate single clones for genomic DNA extraction and PCR verification of successful knock-in (KI) of the SFB-EGFP cassette into 5′-end of first exon of the H2AX gene. The selected H2AX-EGFP 293T cell clone was subsequently infected with lentiviruses encoding tetracycline-inducible SpCas9 (iCas9). After drug selection, individual clones were again expanded and verified for inducible Cas9 expression. The selected clone was subsequently infected with lentivirus encoding a gRNA that targets EGFP. Puromycin-resistant clones ([…], Thermo Fisher Scientific) were then isolated after >7 days for further analysis.

[7] = test system: LbCas12a; experiment: LbCas12a in vitro cleavage assay; type: biochemical; details: 100 μM
Method: In vitro cleavage experiments were performed using purified recombinant LbCas12a proteins similar to SpCas9 cleavage assays. LbCas12a proteins (50 nM), crRNA (50 nM), and different concentrations of the inhibitor compounds were mixed in NEBuffer 2 (New England Biolabs). After incubation at room temperature for 10 min, ScaI-linearized pUC19 DNA was added to a final concentration of 1.52 nM. The solution was vortex mixed and centrifuged, then incubated for 45 min in a water bath at 37 °C. The reaction was quenched with 0.5 μL proteinase K for 15 min at 56 °C. The samples were mixed with DNA loading buffers and resolved by 1.2% TAE agarose gel electrophoresis. Gel bands were visualized by Chemidoc XRS plus system (Bio-Rad, Hercules, CA, USA).

[8] = target: T2, SpCas9; experiment: On- and off-target editing at endogenous loci in iCas9 U2OS cells (deep sequencing); type: cell-based; design: expressed in transfected cells; details: +Dox
Method: The iCas9-expressing U2OS cells were first through lentiviral infection. The cells were cultured with 1 μg/mL puromycin until all cells in the negative control group were dead. Monoclonal cells were then isolated and verified. Lentiviruses encoding appropriate gRNAs were used to infect the iCas9 U2OS cells, which were further selected with 10 μg/mL Blasticidin S HCL (Gibco, New York, NY, USA) until all cells in the control group were dead. The iCas9/gRNA cells were then plated in 12-well plates (Thermo Fisher Scientific) at ~40% confluence per well at 24 h before the doxycycline (2 μg/mL) addition. An individual inhibitor compound was also added at this point at the appropriate concentrations. DMSO alone served as the control. Cells cultured without doxycycline served as the SpCas9 cleavage control. After 24 h, cells were collected for genomic DNA extraction using the AxyPrep blood genomic DNA miniprep kit (Axygen, New York, NY, USA). Sequences surrounding the on- and off-target sites were amplified using barcoded primers (Supplementary Table S3) and the KOD PCR kit (Toyobo, Japan) to generate the sequencing libraries. Single-read sequencing of the pooled samples were performed on the 150 Hiseq 2000 (Illumina, San Diego, CA, USA). Each experiment was repeated twice. MATLAB was used to split the sequencing file and CRISPResso2 [38] was used to analyze the frequency of indels.

[9] = target: T1, SpCas9–gRNA complex; experiment: Competitive fluorescence polarization assay, SpCas9-gRNA; type: binding

## CC1(C)CC(=NNc2ccc([N+](=O)[O-])cc2[N+](=O)[O-])CC(C)(C)N1C(=O)COCC(=O)N1C(C)(C)CC(=NNc2ccc([N+](=O)[O-])cc2[N+](=O)[O-])CC1(C)C [SP2]
[1]
  EC50: 5.63 ± 3.65 µM
[2]
  Fluorescence Polarization (mP): 209.5 mP
[3]
  EC50: 44.2 ± 35.4 µM
[4]
  effect on SpCas9 expression: Neither compound appeared to affect SpCas9 expression
[5]
  effect on fluorescence polarization value of fluorescence-labeled DNA: did not affect
[6]; 10 μM, Dox 2 μg/mL, 72 h
  SpCas9 inhibition in reporter cells: 50%
[6]; from 40 to 2 μM
  inhibitory activity in reporter cells (in words): changed little
[6]; titration, Dox 2 μg/mL, 72 h, flow cytometry
  EC50: 5.07 µM
[7]
  inhibition of LbCas12a-mediated cleavage: no inhibition
[8]; 2.5 μM
  reduction of SpCas9 off-target editing, EMX1-2: 63.3%
[8]; 24 h, SP2 2.5 μM, SP24 0.5 μM
  Indel (%) EMX1-1 Off-target: 21.7%
  Indel (%) EMX1-1 On-target: 42.2%
  Indel (%) EMX1-2 Off-target: 1.1%
  Indel (%) EMX1-2 On-target: ~ 18% and 17.8%
  Indel (%) ZSCAN2 Off-target: 6.7%
  Indel (%) ZSCAN2 On-target: 32.2%
  ratio of on-target vs. off-target indels, EMX1-1: 1.94 x
  ratio of on-target vs. off-target indels, EMX1-2: 16.18 x
  ratio of on-target vs. off-target indels, ZSCAN2: 4.81 x
[8]; 24 h, SP2 2.5 μM, SP24 1 μM
  Indel (%) VEGFA-3 Off-target: 1.4%
  Indel (%) VEGFA-3 On-target: 35.2%
  ratio of on-target vs. off-target indels, VEGFA-3: 25.14 x
[9]; 50 μM
  change of FP signals of SpCas9-gRNA and DNA: < 5%
[9]; SpCas9+gRNA 50 nM, FITC-DNA 25 nM, compounds 50 μM, PAM-DNA 1.25 μM
  Fluorescence Polarization (mP): 160.5 mP
